The values that follow come from PubChem BioAssay AID192 (DTP/NCI, 2004).

The assay relates to BDF1 mice, B16 melanoma ip, median survival T/C. Description: NCI In Vivo Anticancer Drug Screen. Data for tumor model B16 Melanoma (intraperitoneal) in B6D2F1 (BDF1) mice. Conditions: endpoint: median survival time, higher = longer survival. The gist of the method: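 Antitumor activity is assessed in mice bearing a transplanted tumor, with survival or tumor size compared against vehicle-dosed controls and expressed as T/C.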

Setting [1] is: dose: 12.5 mg/kg/injection, schedule: Q01DX009 (ip), vehicle: saline with Tween-80.
[2] abbreviates: dose: 25.0 mg/kg/injection, schedule: Q01DX009 (ip), vehicle: saline with Tween-80.
Where [3] appears, read: dose: 50.0 mg/kg/injection, schedule: Q01DX009 (ip), vehicle: saline with Tween-80.
Where [4] appears, read: dose: 100.0 mg/kg/injection, schedule: Q01DX009 (ip), vehicle: Klucel (hydroxypropylcellulose) (HPC).
[5] abbreviates: dose: 200.0 mg/kg/injection, schedule: Q01DX009 (ip), vehicle: Klucel (hydroxypropylcellulose) (HPC).
The mark [6] stands for this setting: dose: 400.0 mg/kg/injection, schedule: Q01DX009 (ip), vehicle: Klucel (hydroxypropylcellulose) (HPC).

The structures appear in SMILES notation. Several values for one entry are separate records, joined by “and”; a condition that tells them apart may be missing. Identical values can stand only once. Toxic doses and inconclusive results are not listed. Peptide text beside a SMILES is read from it. * marks the point of attachment. Cbz = O=C(OCc1ccccc1)*

On to `CCCCCCCCCCCCCC[N+](C)(C)CC(=O)O`, for which the T/C under setting [1] is 93 % of control, the T/C under setting [2] was 91 % of control and the T/C under setting [3] was 86 % of control.
`O=NN(CCF)C(=O)NC1CCC(=O)NC1=O` (stereo not drawn): the T/C reads like this: (dose: 1.88 mg/kg/injection, schedule: Q01DX001 (ip), vehicle: saline) 105 % of control; (dose: 7.5 mg/kg/injection, schedule: Q01DX001 (ip), vehicle: saline) 120 % of control; (dose: 15.0 mg/kg/injection, schedule: Q01DX001 (ip), vehicle: saline) 166 % of control; (dose: 30.0 mg/kg/injection, schedule: Q01DX001 (ip), vehicle: saline) 189 % of control; (dose: 60.0 mg/kg/injection, schedule: Q01DX001 (ip), vehicle: saline) 209 % of control.
On to `O=C(/C(=N\Nc1ccc([N+](=O)[O-])cc1)c1ccccc1)c1ccccc1`, for which the T/C was 100 % of control (dose: 3.13 mg/kg/injection, schedule: Q01DX009 (ip), vehicle: saline with Tween-80); 95 % of control (dose: 6.25 mg/kg/injection, schedule: Q01DX009 (ip), vehicle: saline with Tween-80); 90 % of control and 93 % of control under setting [1]; 90 % of control under setting [3].
Regarding `CC(=O)CC(=O)N1CCN(C(=O)CC(C)=O)CC1`, the T/C reads like this: (dose: 100.0 mg/kg/injection, schedule: Q01DX009 (ip), vehicle: saline) 87 % of control; (dose: 200.0 mg/kg/injection, schedule: Q01DX009 (ip), vehicle: saline) 87 % of control; (dose: 400.0 mg/kg/injection, schedule: Q01DX009 (ip), vehicle: saline) 91 % of control.
In the case of `Cc1ccc(Cl)cc1NC(=O)c1ccc(Cl)cc1`, the T/C is, setting by setting: under setting [4], 94 % of control; under setting [5], 101 % of control; under setting [6], 116 % of control.
As for `CC1(C)N=C(N)N=C(N)N1c1ccc(CCC(=O)Nc2ccc(S(=O)(=O)F)cc2)c(Cl)c1`, the T/C (dose: 6.25 mg/kg/injection, schedule: Q01DX009 (ip), vehicle: saline) is 104 % of control and the T/C (dose: 12.5 mg/kg/injection, schedule: Q01DX009 (ip), vehicle: saline) is 108 % of control.
For `O=[N+]([O-])c1ccc(C(O)CC(O)(C(F)(F)F)C(F)(F)F)cc1` (stereo not drawn), the T/C is 97 % of control (dose: 100.0 mg/kg/injection, schedule: Q04DX003 (ip), vehicle: Klucel (hydroxypropylcellulose) (HPC)); 97 % of control (dose: 200.0 mg/kg/injection, schedule: Q04DX003 (ip), vehicle: Klucel (hydroxypropylcellulose) (HPC)); 95 % of control (dose: 400.0 mg/kg/injection, schedule: Q04DX003 (ip), vehicle: Klucel (hydroxypropylcellulose) (HPC)).
On to `NC(=O)c1nc2n(c1N)CCC2`, for which the T/C is 102 % of control (dose: 100.0 mg/kg/injection, schedule: Q04DX003 (ip), vehicle: saline with Tween-80); 105 % of control (dose: 200.0 mg/kg/injection, schedule: Q04DX003 (ip), vehicle: saline with Tween-80); 94 % of control (dose: 400.0 mg/kg/injection, schedule: Q04DX003 (ip), vehicle: saline with Tween-80).
In the case of `CC1OC(OC2CC(O)(C(=O)CO)Cc3c(O)c4c(c(O)c32)C(=O)c2ccccc2C4=O)CC(N)C1O` (stereo not drawn), the T/C is 102 % of control (dose: 0.1 mg/kg/injection, schedule: Q01DX001 (ip), vehicle: water); 121 % of control (dose: 130.0 micrograms/kg/injection, schedule: Q01DX004 (ip), vehicle: other); 182 % of control (dose: 216.0 micrograms/kg/injection, schedule: Q04DX003 (ip), vehicle: water); 114 % of control (dose: 600.0 micrograms/kg/injection, schedule: Q01DX004 (ip), vehicle: other); 150 % of control and 283 % of control (dose: 600.0 micrograms/kg/injection, schedule: Q04DX003 (ip), vehicle: water); 154 % of control and 211 % of control (dose: 1000.0 micrograms/kg/injection, schedule: Q04DX003 (ip), vehicle: water).
For the compound `COc1cc2c(cc1O)N=C[C@@H]1CCC(O)N1C2=O` (mixture of isomers), the T/C was 99 % of control (dose: 0.5 mg/kg/injection, schedule: Q01DX009 (ip), vehicle: saline); 99 % of control (dose: 1.0 mg/kg/injection, schedule: Q01DX009 (ip), vehicle: saline); 98 % of control (dose: 2.0 mg/kg/injection, schedule: Q01DX009 (ip), vehicle: saline); 101 % of control and 119 % of control (dose: 4.0 mg/kg/injection, schedule: Q01DX009 (ip), vehicle: saline).
`NC(CS/C(Cl)=C/Cl)C(=O)O` (stereo not drawn): the T/C was 102 % of control (dose: 12.0 mg/kg/injection, schedule: Q01DX009 (ip), vehicle: other); 90 % of control (dose: 18.0 mg/kg/injection, schedule: Q01DX009 (ip), vehicle: other); 90 % of control (dose: 27.0 mg/kg/injection, schedule: Q01DX009 (ip), vehicle: other).
For the compound `O=C1OC(=O)C2C1C1C3C=CC3C1C21C=C1` (stereo not drawn), the T/C runs as follows: under setting [4], 87 % of control; under setting [5], 87 % of control.
Take `CCC1=C[C@H]2CN(CCc3c([nH]c4ccccc34)[C@@](C(=O)OC)(c3cc4c(cc3OC)N(C)[C@H]3[C@@](O)(C(=O)NC)[C@H](OC(C)=O)[C@]5(CC)C=CCN6CC[C@]43[C@@H]65)C2)C1`: the T/C was 119 % of control (dose: 0.05 mg/kg/injection, schedule: Q01DX009 (ip), vehicle: Klucel (hydroxypropylcellulose) (HPC)); 156 % of control (dose: 0.06 mg/kg/injection, schedule: Q01DX009 (ip), vehicle: water); 113 % of control (dose: 0.1 mg/kg/injection, schedule: Q01DX009 (ip), vehicle: Klucel (hydroxypropylcellulose) (HPC)); 160 % of control and 183 % of control (dose: 0.12 mg/kg/injection, schedule: Q01DX009 (ip), vehicle: water); 123 % of control (dose: 0.12 mg/kg/injection, schedule: Q04DX003 (ip), vehicle: water); 124 % of control (dose: 0.2 mg/kg/injection, schedule: Q01DX009 (ip), vehicle: Klucel (hydroxypropylcellulose) (HPC)). In addition, the T/C (dose: 0.25 mg/kg/injection, schedule: Q01DX009 (ip), vehicle: water) was 181 % of control and 220 % of control; the T/C (dose: 0.5 mg/kg/injection, schedule: Q01DX009 (ip), vehicle: water) is 157 % of control; the T/C (dose: 0.5 mg/kg/injection, schedule: Q04DX003 (ip), vehicle: water) was 156 % of control; the T/C (dose: 1.6 mg/kg/injection, schedule: Q01DX009 (ip), vehicle: Klucel (hydroxypropylcellulose) (HPC)) is 181 % of control.
Consider `Nc1nc(=S)c2[nH]c(N=Nc3ccc(S(=O)(=O)Nc4ncccn4)cc3)nc2[nH]1`, for which the T/C by setting is: (dose: 1.56 mg/kg/injection, schedule: Q01DX009 (ip), vehicle: Klucel (hydroxypropylcellulose) (HPC)) 95 % of control; (dose: 3.12 mg/kg/injection, schedule: Q01DX009 (ip), vehicle: Klucel (hydroxypropylcellulose) (HPC)) 102 % of control; (dose: 6.25 mg/kg/injection, schedule: Q01DX009 (ip), vehicle: Klucel (hydroxypropylcellulose) (HPC)) 113 % of control; (dose: 12.5 mg/kg/injection, schedule: Q01DX009 (ip), vehicle: Klucel (hydroxypropylcellulose) (HPC)) 102 % of control.
In the case of `COc1ccccc1NC(=O)Nc1c(C)cccc1C`, the T/C was 101 % of control (dose: 100.0 mg/kg/injection, schedule: Q01DX009 (ip), vehicle: gum acacia); 102 % of control (dose: 200.0 mg/kg/injection, schedule: Q01DX009 (ip), vehicle: gum acacia); 90 % of control (dose: 400.0 mg/kg/injection, schedule: Q01DX009 (ip), vehicle: gum acacia).
As to `COc1cccc2c1C(=O)c1c(O)c3c(c(O)c1C2=O)C[C@@](O)(C(C)O)C[C@@H]3OC1CC(N2CCOCC2C#N)C(O)C(C)O1` (stereo partly drawn), the T/C (dose: 4.69 micrograms/kg/injection, schedule: Q01DX001 (ip), vehicle: water) is 110 % of control; the T/C (dose: 9.37 micrograms/kg/injection, schedule: Q01DX001 (ip), vehicle: water) was 115 % of control; the T/C (dose: 37.5 micrograms/kg/injection, schedule: Q01DX001 (ip), vehicle: water) is 124 % of control.
For `CCOC(=O)c1cncc(C(=O)OCC)c1`, the T/C by setting is: under setting [4], 107 % of control; under setting [5], 113 % of control; under setting [6], 106 % of control.
For the compound `COC(=O)C1CCCN1C(=O)C(CCCCNC(=O)OCc1ccccc1)NC(=O)OCc1ccccc1` (stereo not drawn) (Cbz-Lys(Cbz)-Pro-OMe; configuration not given here), the T/C under setting [2] is 94 % of control; the T/C under setting [3] is 98 % of control; the T/C (dose: 100.0 mg/kg/injection, schedule: Q01DX009 (ip), vehicle: saline with Tween-80) is 112 % of control; the T/C (dose: 200.0 mg/kg/injection, schedule: Q01DX009 (ip), vehicle: saline with Tween-80) is 108 % of control.
